The test system of one test is leukocyte adhesion to HA. The conditions noted are these: cited from earlier work.
The test system of a further test is S. aureus PS80. As to the kind of experiment: Modified NCCLS macrodilution broth method, antimicrobial activity. The format is cell-based, Staphylococcus aureus. The conditions noted are these: 1, 10 and 100 ug/mL; quantitative cultures at 4, 8, 24 h; vs controls without HABPs. The procedure: The antimicrobial activity of HABP35 and HABP53 was determined using a modified National Committee for Clinical Laboratory Standards (NCCLS) macrodilution broth method. S. aureus PS80 was grown overnight on tryptic soy agar plates containing 5% sheep blood. Colonies were suspended in sterile saline and dilutions made to achieve a final concentration of 5×10^5 CFU/ml in each tube containing 5 ml of Mueller-Hinton and BP35 or 53. The HABPs were tested at 1, 10, and 100 ug/mL concentrations. Once inoculated, the tubes were incubated in ambient air at 37° C. and bacterial concentration determined at 4, 8, and 24 hours. Modification of testing parameters included the 10 fold dilution of the HABPs and the determination of bacterial counts at 4, 8 and 24 hours rather than the visual determination of growth or inhibition.

The next test has as its system contact hypersensitivity. The conditions noted are these: mice; cited from earlier work.
In the next test the test system is S. aureus strain PS80. Description: Mouse model of S. aureus surgical wound infection. The format is in vivo, C57BL6 mice. The method, then:
Bacterial strains. S. aureus strain PS80 (serotype 8) was obtained from the American Type Culture collection (#27700) and is a potent inducer of intraabdominal abscess formation. S. aureus COL is a methicillin resistant strain that produces a serotype 5 capsule. Staphylococci were cultivated for 24 h at 37° C. on Columbia agar (Difco Laboratories, Detroit, Mich.) supplemented with 2% NaCl.
Mouse model of S. aureus wound infection. Mice (C57BL6, male, 6-8 wk old) were obtained from Jackson Laboratories (Bar Harbor, Me.). Groups of mice (N=4/group/experiment) were anesthetized with 100 mg/kg ketamine and 10 mg/kg xylazine, their right thighs were shaved, and the surgical area was disinfected with iodine and 70% ethanol. An incision was made in the skin to expose the thigh muscle, and a 1-cm incision was made with a scalpel into the thigh muscle to the depth of the bone. The muscle was then closed with one 4-0 silk suture, and 10 μl of a S. aureus suspension ranging in dose from 10^2 to 10^4 CFU was introduced into the incision under the suture. The skin was closed with four additional Prolene sutures. The mice were euthanized at 3 days post-surgery. The wounded muscle tissue was excised, weighed (˜0.08 g), and homogenized in 1 ml of tryptic soy broth. Serial dilutions of the homogenates were plated in duplicate and results were expressed as CFU/g tissue. Peptides were administered to animals in two ways. For most experiments, HABPs were solubilized in PBS and administered with a pipet into the wound in a 10 μl volume following challenge with bacteria. A 100 μg dose was used for most experiments. For therapeutic studies, peptide was administered via a 1 ml tuberculin syringe fitted with a 25 gauge needle in a 0.25 ml volume injected into the thigh muscle containing the wound distal from the incision site.
Gross pathology and histologic analysis of host response. […] Histological examination of these wounds confirmed these findings. Muscle tissue was harvested from mice at designated intervals post-surgery, fixed in 10% buffered formalin, and mounted in paraffin; 5 to 6-μm sections were cut and stained with hematoxylin and eosin for microscopic examination. […] The cellular infiltrate was primarily comprised of PMNs and fibrin.
Statistical analyses. All animal experiments were performed at least two times and the data pooled. Comparison of S. aureus CFU/g tissue was made by the Welch modification of the unpaired Student t test (InStat, GraphPad Software, San Diego, Calif.).

GAHWQFNALTVRGGGS [HABP52]: the “leukocyte adhesion to HA” value with leukocyte adhesion to HA is recorded as “inhibit leukocyte adhesion to HA”. In addition, the “growth of S. aureus” value with S. aureus PS80 is on record as “not inhibited”. For the same sequence, the contact hypersensitivity responses entry in the test with contact hypersensitivity is recorded as “inhibits contact hypersensitivity responses”. In addition, the “bacterial burden at the wound site compared with PBS” value in the test on S. aureus strain PS80 (100 μg into wound at time of challenge with 10^2 CFU, 3 days later) is reported as “significant decrease”. Also, the “log reduction in bacterial numbers vs PBS” value with S. aureus strain PS80 (challenge with 10^3 CFU, 3 days) was roughly 3 log.
